Measurements published in EP4553080A1, “NUCLEOSIDE DERIVATIVES AS ANTIVIRAL AGENTS AGAINST CORONAVIRUSES” (Ustav Organicke Chemie a Biochemie AV CR, v.v.i., priority 2023, dated 2025).

Molecular target: nsp14 methyltransferase from SARS-CoV-2 (Severe acute respiratory syndrome coronavirus 2, UniProt P0DTD1)
Assay: Nsp14 MTase activity inhibition in vitro (EchoMS assay)
Format: biochemical
Conditions: recombinant nsp14 protein expressed in E. coli; dose-response curve

| SMILES | IC50 |
| --- | --- |
| Cn1cnc(-c2ccccc2)c1CSC[C@H]1O[C@@H](n2cc(I)c3c(N)ncnc32)[C@H](O)[C@@H]1O [Compound 244, (2R,3R,4S,5S)-2-(4-Amino-5-iodo-7H-pyrrolo[2,3-d]pyrimidin-7-yl)-5-((((1-methyl-4-phenyl-1H-imidazol-5-yl)methyl)thio)methyl)tetrahydrofuran-3,4-diol] | 0.01 to 0.03 µM |
| Cc1noc(-c2ccccc2)c1CSC[C@H]1O[C@@H](n2cc(-c3ccc(-c4ccccn4)cc3)c3c(N)ncnc32)[C@H](O)[C@@H]1O [Compound 188] | 0.03 to 0.1 µM |
| Cc1noc(-c2ccccc2)c1CSC[C@H]1O[C@@H](n2cc(C#Cc3ncc[nH]3)c3c(N)ncnc32)[C@H](O)[C@@H]1O [Compound 178b, (2R,3R,4S,5S)-2-(5-((1H-Imidazol-2-yl)ethynyl)-4-amino-7H-pyrrolo[2,3-d]pyrimidin-7-yl)-5-((((3-methyl-5-phenylisoxazol-4-yl)methyl)thio)methyl)tetrahydrofuran-3,4-diol] | 0.03 to 0.1 µM |
| Cc1ccc(-c2onc(C)c2CSC[C@H]2O[C@@H](n3cc(C#Cc4cncnc4)c4c(N)ncnc43)[C@H](O)[C@@H]2O)cc1C [Compound 242c, (2R,3R,4S,5S)-2-(4-Amino-5-(pyrimidin-5-ylethynyl)-7H-pyrrolo[2,3-d]pyrimidin-7-yl)-5-((((5-(3,4-dimethylphenyl)-3-methylisoxazol-4-yl)methyl)thio)methyl)tetrahydrofuran-3,4-diol] | 0.01 to 0.03 µM |
| Cc1noc(-c2ccccc2)c1CSC[C@H]1O[C@@H](n2cc(C#Cc3cncnc3)c3c(N)ncnc32)[C@H](O)[C@@H]1O [Compound 172b] | 0.01 to 0.03 µM |
| Cn1cnc(-c2ccccc2)c1CSC[C@H]1O[C@@H](n2cc(C#Cc3cncnc3)c3c(N)ncnc32)[C@H](O)[C@@H]1O [Compound 237c, (2R,3R,4S,5S)-2-(4-Amino-5-(pyrimidin-5-ylethynyl)-7H-pyrrolo[2,3-d]pyrimidin-7-yl)-5-((((1-methyl-4-phenyl-1H-imidazol-5-yl)methyl)thio)methyl)tetrahydrofuran-3,4-diol] | 0.03 to 0.1 µM |
| Nc1ncnc2c1ccn2[C@@H]1O[C@H](CSCc2csnc2-c2ccccc2)[C@@H](O)[C@H]1O [Compound 105c, (2R,3R,4S,5S)-2-(4-Amino-7H-pyrrolo[2,3-d]pyrimidin-7-yl)-5-((((3-phenylisothiazol-4-yl)methyl)thio)methyl)tetrahydrofuran-3,4-diol] | 0.5 to 2 µM |
| Cc1ncnc(-c2ccccc2)c1CSC[C@H]1O[C@@H](n2cc(I)c3c(N)ncnc32)[C@H](O)[C@@H]1O [Compound 246, (2R,3R,4S,5S)-2-(4-Amino-5-iodo-7H-pyrrolo[2,3-d]pyrimidin-7-yl)-5-((((4-methyl-6-phenylpyrimidin-5-yl)methyl)thio)methyl)tetrahydrofuran-3,4-diol] | 0.01 to 0.03 µM |
| Cc1nsc(-c2ccccc2)c1CSC[C@H]1O[C@@H](n2cc(-c3ccc(C#N)cc3)c3c(N)ncnc32)[C@H](O)[C@@H]1O [Compound 231b, 4-(4-Amino-7-((2R,3R,4S,5S)-3,4-dihydroxy-5-((((3-methyl-5-phenylisothiazol-4-yl)methyl)thio)methyl)tetrahydrofuran-2-yl)-7H-pyrrolo[2,3-d]pyrimidin-5-yl)benzonitrile] | 0.1 to 0.5 µM |
| Cc1n[nH]c(-c2ccccc2)c1CSC[C@H]1O[C@@H](n2ccc3c(N)ncnc32)[C@H](O)[C@@H]1O [Compound 51c, (2R,3R,4S,5S)-2-(4-Amino-7H-pyrrolo[2,3-d]pyrimidin-7-yl)-5-((((3-methyl-5-phenyl-1H-pyrazol-4-yl)methyl)thio)methyl)tetrahydrofuran-3,4-diol] | 0.1 to 0.5 µM |
| Cc1noc(-c2ccc3c(c2)OCO3)c1CSC[C@H]1O[C@@H](n2cc(-c3ccc(C#N)cc3)c3c(N)ncnc32)[C@H](O)[C@@H]1O [Compound 236b] | 0.01 to 0.03 µM |
| Cc1noc(-c2ccccc2)c1CSC[C@H]1O[C@@H](n2nc(-c3ccc(C#N)cc3)c3c(N)ncnc32)[C@H](O)[C@@H]1O [Compound 219b, 4-(4-Amino-1-((2R,3R,4S,5S)-3,4-dihydroxy-5-((((3-methyl-5-phenylisoxazol-4-yl)methyl)thio)methyl)tetrahydrofuran-2-yl)-1H-pyrazolo[3,4-d]pyrimidin-3-yl)benzonitrile] | 0.03 to 0.1 µM |
| Cc1noc(-c2ccccc2)c1CSC[C@H]1O[C@@H](n2cc(-c3ccc(-c4cccnc4)cc3)c3c(N)ncnc32)[C@H](O)[C@@H]1O [Compound 187] | 0.03 to 0.1 µM |
| Cn1nnc(-c2ccccc2)c1CSC[C@H]1O[C@@H](n2ccc3c(N)ncnc32)[C@H](O)[C@@H]1O [Compound 55c, (2R,3R,4S,5S)-2-(4-Amino-7H-pyrrolo[2,3-d]pyrimidin-7-yl)-5-((((1-methyl-4-phenyl-1H-1,2,3-triazol-5-yl)methyl)thio)methyl)tetrahydrofuran-3,4-diol] | 0.03 to 0.1 µM |
| Cc1ncc(-c2cn([C@@H]3O[C@H](CSCc4c(C)noc4-c4ccccc4)[C@@H](O)[C@H]3O)c3ncnc(N)c23)s1 [Compound 156, (2R,3R,4S,5S)-2-(4-Amino-5-(2-methylthiazol-5-yl)-7H-pyrrolo[2,3-d]pyrimidin-7-yl)-5-((((3-methyl-5-phenylisoxazol-4-yl)methyl)thio)methyl)tetrahydrofuran-3,4-diol] | 0.01 to 0.03 µM |
| Cc1noc(-c2ccccc2)c1CSC[C@H]1O[C@@H](n2cc(-c3ccc4ccccc4c3)c3c(N)ncnc32)[C@H](O)[C@@H]1O [Compound 148b, (2R,3R,4S,5S)-2-(4-Amino-5-(naphthalen-2-yl)-7H-pyrrolo[2,3-d]pyrimidin-7-yl)-5-((((3-methyl-5-phenylisoxazol-4-yl)methyl)thio)methyl)tetrahydrofuran-3,4-diol] | 0.1 to 0.5 µM |
| Cc1noc(-c2ccccc2)c1CSC[C@H]1O[C@@H](n2cc(CCc3ccccc3)c3c(N)ncnc32)[C@H](O)[C@@H]1O [Compound 184, (2R,3R,4S,5S)-2-(4-Amino-5-phenethyl-7H-pyrrolo[2,3-d]pyrimidin-7-yl)-5-((((3-methyl-5-phenylisoxazol-4-yl)methyl)thio)methyl)tetrahydrofuran-3,4-diol] | 0.1 to 0.5 µM |
| Cn1cnc(-c2ccccc2)c1CSC[C@H]1O[C@@H](n2cc(-c3ccc(C#N)cc3)c3c(N)ncnc32)[C@H](O)[C@@H]1O [Compound 230b, 4-(4-Amino-7-((2R,3R,4S,5S)-3,4-dihydroxy-5-((((1-methyl-4-phenyl-1H-imidazol-5-yl)methyl)thio)methyl)tetrahydrofuran-2-yl)-7H-pyrrolo[2,3-d]pyrimidin-5-yl)benzonitrile] | 0.1 to 0.5 µM |
| Cc1noc(-c2ccccc2)c1CSC[C@H]1O[C@@H](n2cc(C#Cc3cnc4ccccc4c3)c3c(N)ncnc32)[C@H](O)[C@@H]1O [Compound 176b, (2R,3R,4S,5S)-2-(4-Amino-5-(quinolin-3-ylethynyl)-7H-pyrrolo[2,3-d]pyrimidin-7-yl)-5-((((3-methyl-5-phenylisoxazol-4-yl)methyl)thio)methyl)tetrahydrofuran-3,4-diol] | 0.1 to 0.5 µM |
| Cc1noc(-c2ccccc2)c1CSC[C@H]1O[C@@H](n2nc(CCCC#N)c3c(N)ncnc32)[C@H](O)[C@@H]1O [Compound 223b, 4-(4-Amino-1-((2R,3R,4S,5S)-3,4-dihydroxy-5-((((3-methyl-5-phenylisoxazol-4-yl)methyl)thio)methyl)tetrahydrofuran-2-yl)-1H-pyrazolo[3,4-d]pyrimidin-3-yl)butanenitrile] | 0.03 to 0.1 µM |
| Cc1noc(-c2ccccc2)c1CSC[C@H]1O[C@@H](n2cc(-c3ccc([N+](=O)[O-])cc3)c3c(N)ncnc32)[C@H](O)[C@@H]1O [Compound 144b] | 0.03 to 0.1 µM |
| Cc1noc(-c2ccccc2)c1CSC[C@H]1O[C@@H](n2cc(C3CCCCC3)c3c(N)ncnc32)[C@H](O)[C@@H]1O [Compound 134b, (2R,3R,4S,5S)-2-(4-Amino-5-cyclohexyl-7H-pyrrolo[2,3-d]pyrimidin-7-yl)-5-((((3-methyl-5-phenylisoxazol-4-yl)methyl)thio)methyl)tetrahydrofuran-3,4-diol] | 0.1 to 0.5 µM |
| COc1ncnc(-c2ccccc2)c1CSC[C@H]1O[C@@H](n2ccc3c(N)ncnc32)[C@H](O)[C@@H]1O [Compound 110c, (2R,3R,4S,5S)-2-(4-Amino-7H-pyrrolo[2,3-d]pyrimidin-7-yl)-5-((((4-methoxy-6-phenylpyrimidin-5-yl)methyl)thio)methyl)tetrahydrofuran-3,4-diol] | 0.5 to 2 µM |
| Cc1noc(-c2ccccc2)c1CSC[C@H]1O[C@@H](n2ccc3c(N)ncnc32)[C@H](O)[C@@H]1O [Compound 47c, (2R,3R,4S,5S)-2-(4-Amino-7H-pyrrolo[2,3-d]pyrimidin-7-yl)-5-((((3-methyl-5-phenylisoxazol-4-yl)methyl)thio)methyl)tetrahydrofuran-3,4-diol] | 0.03 to 0.1 µM |
| Cc1noc(-c2ccccc2)c1CSC[C@H]1O[C@@H](n2ncc3c(N)ncnc32)[C@H](O)[C@@H]1O [Compound 213, (2R,3R,4S,5S)-2-(4-Amino-1H-pyrazolo[3,4-d]pyrimidin-1-yl)-5-((((3-methyl-5-phenylisoxazol-4-yl)methyl)thio)methyl)tetrahydrofuran-3,4-diol] | 0.03 to 0.1 µM |
| Cc1noc(-c2ccccc2)c1CSC[C@H]1O[C@@H](n2cc(CCc3cncnc3)c3c(N)ncnc32)[C@H](O)[C@@H]1O [Compound 183, (2R,3R,4S,5S)-2-(4-Amino-5-(2-(pyrimidin-5-yl)ethyl)-7H-pyrrolo[2,3-d]pyrimidin-7-yl)-5-((((3-methyl-5-phenylisoxazol-4-yl)methyl)thio)methyl)tetrahydrofuran-3,4-diol] | 0.03 to 0.1 µM |
| Cc1noc(-c2ccccc2)c1CSC[C@H]1O[C@@H](n2cc(SC34CC5CC(CC(C5)C3)C4)c3c(N)ncnc32)[C@H](O)[C@@H]1O [Compound 191, (2R,3R,4S,5S)-2-(5-((Adamantan-1-yl)thio)-4-amino-7H-pyrrolo[2,3-d]pyrimidin-7-yl)-5-((((3-methyl-5-phenylisoxazol-4-yl)methyl)thio)methyl)tetrahydrofuran-3,4-diol] | 0.1 to 0.5 µM |
| Cn1cnc(-c2ccccc2)c1CSC[C@H]1O[C@@H](n2ccc3c(N)ncnc32)[C@H](O)[C@@H]1O [Compound 49c] | 0.1 to 0.5 µM |
